In experiment [1] the target is human HSP90 alpha protein (N-terminal, amino acids 2 to 236) (Homo sapiens (Human), UniProt P07900). Kind of experiment: Determination of HSP90-binding activity (AlphaScreen competitive assay with biotinylated geldanamycin). The conditions noted are these: inhibition of binding of biotinylated geldanamycin to purified HSP90 N-terminal protein, read-out: HSP-binding activity IC50. Summed up:
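His-tagged N-terminal construct (aa 2–236) expressed in E. coli and purified was preincubated with compound 2 h at room temperature, then biotinylated geldanamycin (40 nM/well) added for 1 h. AlphaScreen nickel-chelate acceptor/streptavidin donor beads, 1 h dark; percent inhibition calculated against no-compound signal.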

Experiment [2] concerns SK-BR-3 cells. Kind of experiment: Determination of cell growth inhibition (crystal violet staining method). It is filed as cell-based. The conditions noted are these: Homo sapiens; breast cancer cells SK-BR-3, 72 hours culture with test substance. Summed up:
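SK-BR-3 cells seeded 5,000/well, cultured 24 h at 37 °C, then exposed to compound for 72 h. Cells fixed with glutaraldehyde, stained with 0.05% crystal violet, eluted and read at 540 nm; percent growth inhibition calculated versus untreated wells.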

Structures are written as SMILES.

`CC(C)c1cc(-c2ccc(C(N)=O)c(NC(C)(C)C)c2)c2cccc(-n3cnc(-c4cnn(C)c4)c3)c2n1` [Example 112, 2-(Tert-butylamino)-4-(2-isopropyl-8-(4-(1-methyl-1H-pyrazol-4-yl)-1H-imidazol-1-yl)quinolin-4-yl)benzamide]: the IC50 in experiment [1] amounted to 0.5 µM; in experiment [2], 0.02 µM.

As to `CC(C)c1cc(-c2ccc(C(N)=O)c(N)c2)c2cccc(-n3cnc(-c4cnn(C)c4)c3)c2n1` [Example 113, 2-Amino-4-(2-isopropyl-8-(4-(1-methyl-1H-pyrazol-4-yl)-1H-imidazol-1-yl)quinolin-4-yl)benzamide], the IC50 in experiment [1] was 0.08 µM; in experiment [2], 0.01 µM.

On to `NC(=O)c1ccc(-c2nc(C(F)(F)F)nc3c(-c4cnc5ccccc5c4)cccc23)cc1NC1CCC(O)CC1` (stereo not shown) [Example 114, 2-(4-Hydroxycyclohexylamino)-4-(8-(quinolin-3-yl)-2-(trifluoromethyl)quinazolin-4-yl)benzamide], for which the IC50 turned out to be 0.07 µM in experiment [1] and 0.01 µM in experiment [2].

`NC(=O)c1ccc(-c2nc(C3CC3)nc3c(-c4cnc5ccccc5c4)cccc23)cc1NC1CCC(O)CC1` (stereo not shown) [Example 115, 4-(2-Cyclopropyl-8-(quinolin-3-yl)quinazolin-4-yl)-2-(4-hydroxycyclohexylamino)benzamide]: the 50% inhibitory concentration (IC50) in experiment [1] amounted to 0.14 µM; in experiment [2], 0.01 µM.

`NC(=O)c1ccc(-c2ccnc3c(-c4cnc5ccccc5c4)cccc23)cc1NC1CCC(O)CC1` (stereo not shown) [Example 117, 4-(3,8′-Biquinolin-4′-yl)-2-(4-hydroxycyclohexylamino)benzamide]: the IC50 in experiment [1] is 0.29 µM; in experiment [2], 0.05 µM.

For `Cc1ccc(-c2cn(-c3cccc4c(-c5ccc(C(N)=O)c(N)c5)cc(C(F)(F)F)nc34)cn2)cn1` [Example 118, 2-Amino-4-(8-(4-(6-methylpyridin-3-yl)-1H-imidazol-1-yl)-2-(trifluoromethyl)quinolin-4-yl)benzamide], the IC50 was determined as 0.25 µM in experiment [1] and 0.06 µM in experiment [2].

On to `CCNc1cc(-c2cccc3c(-n4cnc(-c5cnn(C)c5)c4)ccnc23)ccc1C(N)=O` [Example 119, 2-(Ethylamino)-4-(4-(4-(1-methyl-1H-pyrazol-4-yl)-1H-imidazol-1-yl)quinolin-8-yl)benzamide], for which the IC50 in experiment [1] is 0.83 µM; in experiment [2], 0.84 µM.

For `CCc1cc(-c2ccc(C(N)=O)c(N)c2)c2cccc(-c3cnc4ccccc4c3)c2n1` [Example 120, 2-Amino-4-(2′-ethyl-3,8′-biquinolin-4′-yl)benzamide], the IC50 in experiment [1] is 0.19 µM; in experiment [2], 0.03 µM.

As to `CC(C)c1cc(-c2ccc(C(N)=O)c(N)c2)c2cccc(-c3cnc4ccccc4c3)c2n1` [Example 121, 2-Amino-4-(2′-isopropyl-3,8′-biquinolin-4′-yl)benzamide], the results for the IC50 in experiment [1] and in experiment [2] were 0.18 µM and 0.02 µM, respectively.

With `CCc1cc(-c2ccc(C(N)=O)c(N)c2)c2cccc(-n3cnc(-c4cccnc4)c3)c2n1` [Example 122, 2-Amino-4-(2-ethyl-8-(4-(pyridin-3-yl)-1H-imidazol-1-yl)quinolin-4-yl)benzamide], the values for the IC50 in experiment [1] and in experiment [2] were 0.09 µM and 0.01 µM, respectively.

With `CC(C)c1cc(-c2ccc(C(N)=O)c(N)c2)c2cccc(-n3cnc(-c4cccnc4)c3)c2n1` [Example 123, 2-Amino-4-(2-isopropyl-8-(4-(pyridin-3-yl)-1H-imidazol-1-yl)quinolin-4-yl)benzamide], the results for the IC50 in experiment [1] and in experiment [2] were 0.16 µM and 0.01 µM, respectively.

Regarding `CCc1cc(-c2ccc(C(N)=O)c(N)c2)c2cccc(-n3cnc(-c4ccc(C)nc4)c3)c2n1` [Example 124, 2-Amino-4-(2-ethyl-8-(4-(6-methylpyridin-3-yl)-1H-imidazol-1-yl)quinolin-4-yl)benzamide], the figures for the IC50 in experiment [1] and in experiment [2] were 0.13 µM and 0.02 µM, respectively.

For the compound `Cc1ccc(-c2cn(-c3cccc4c(-c5ccc(C(N)=O)c(N)c5)cc(C(C)C)nc34)cn2)cn1` [Example 125, 2-Amino-4-(2-isopropyl-8-(4-(6-methylpyridin-3-yl)-1H-imidazol-1-yl)quinolin-4-yl)benzamide], the figures for the IC50 in experiment [1] and in experiment [2] were 0.16 µM and 0.01 µM, respectively.

With `CC(C)(C)Nc1cc(-c2nccc3c(-c4cnc5ccccc5c4)cccc23)ccc1C(N)=O` [Example 126, 2-(Tert-butylamino)-4-(5-(quinolin-3-yl)isoquinolin-1-yl)benzamide], the figures for the IC50 in experiment [1] and in experiment [2] were 1.53 µM and 0.35 µM, respectively.

Take `CC(C)(C)Nc1cc(-c2nccc3c(-n4cnc(-c5cccnc5)c4)cccc23)ccc1C(N)=O` [Example 127]: the figures for the half-inhibitory concentration (IC50) in experiment [1] and in experiment [2] were 0.21 µM and 0.05 µM, respectively.

Take `Cn1cc(-c2cn(-c3cccc4c(-c5ccc(C(N)=O)c(N)c5)nccc34)cn2)cn1` [Example 128, 2-Amino-4-(5-(4-(1-methyl-1H-pyrazol-4-yl)-1H-imidazol-1-yl)isoquinolin-1-yl)benzamide]: the IC50 in experiment [1] amounted to 0.31 µM; in experiment [2] it was 1.06 µM.

For the compound `Cn1cc(-c2cn(-c3cccc4c(-c5ccc(C(N)=O)c(NC(C)(C)C)c5)ccnc34)cn2)cn1` [Example 130, 2-(Tert-butylamino)-4-(8-(4-(1-methyl-1H-pyrazol-4-yl)-1H-imidazol-1-yl)quinolin-4-yl)benzamide], the results for the IC50 in experiment [1] and in experiment [2] were 0.11 µM and 0.06 µM, respectively.

As to `CC(C)(C)Nc1cc(-c2ccnc3c(-n4cnc(-c5cccnc5)c4)cccc23)ccc1C(N)=O` [Example 131, 2-(Tert-butylamino)-4-(8-(4-(pyridin-3-yl)-1H-imidazol-1-yl)quinolin-4-yl)benzamide], the IC50 in experiment [1] is 0.26 µM; in experiment [2], 0.14 µM.

On to `Cn1cc(-c2cn(-c3cccc4c(-c5ccc(C(N)=O)c(N)c5)ccnc34)cn2)cn1` [Example 132, 2-Amino-4-(8-(4-(1-methyl-1H-pyrazol-4-yl)-1H-imidazol-1-yl)quinolin-4-yl)benzamide], for which the IC50 is 0.32 µM in experiment [1] and 0.96 µM in experiment [2].

Regarding `NC(=O)c1ccc(-c2ccnc3c(-n4cnc(-c5cccnc5)c4)cccc23)cc1N` [Example 133], the IC50 in experiment [1] turned out to be 0.84 µM; in experiment [2] it was 1.32 µM.
